ChEMBL document CHEMBL4680243, “N-benzyl 4,4-disubstituted piperidines as a potent class of influenza H1N1 virus inhibitors showing a novel mechanism of hemagglutinin fusion peptide interaction” (Eur J Med Chem, 2020)

What was measured:
[1] = system: Influenza A virus; assay: Antiviral activity against Influenza A virus (A/PR 8/34 (H1N1)) infected in MDCK cells assessed as reduction in virus-induced cytopathic effect measured after 72 hrs by microscopic analysis; format: functional, organism-based; conditions: A/Puerto Rico/8/1934(H1N1)
[2] = system: Influenza A virus; assay: Antiviral activity against Influenza A virus (A/PR 8/34 (H1N1)) infected in MDCK cells assessed as reduction in virus-induced cytopathic effect measured after 72 hrs by MTS assay; format: functional, organism-based; conditions: A/Puerto Rico/8/1934(H1N1)
[3] = Cytotoxicity against MDCK cells assessed as change in cell morphology measured after 72 hrs by microscopic analysis; format: cell-based, Canis lupus familiaris; conditions: dog
[4] = Cytotoxicity against MDCK cells assessed as reduction in cell viability measured after 72 hrs by MTS assay; format: cell-based, Canis lupus familiaris; conditions: dog
[5] = Selectivity index, ratio of CC50 for MDCK cells to EC50 for antiviral activity against Influenza A virus (A/Puerto Rico/8/1934(H1N1)) infected in MDCK cells; format: toxicity, cell-based; conditions: dog, read-out: Ratio CC50/EC50

Compound	EC50 [1]	EC50 [2]	MCC at 72 h [3]	CC50 at 72 h [4]	selectivity ratio [5]
COC(=O)C[C@H](NC(=O)OC(C)(C)C)C(=O)N(Cc1ccc(F)cc1)C(C)(C)C(=O)NCc1ccccc1	> 100 µM	> 100 µM	20 µM	10 µM	
CC(C)(C)NC(=O)C1(N(C(=O)[C@H](Cc2ccccc2)NC(=O)OC(C)(C)C)C2CC2)CCN(Cc2ccccc2)CC1	5.8 µM	5.3 µM	84 µM	58 µM	≤ 10
CCC(C)N(C(=O)[C@H](CC(=O)OC)NC(=O)OC(C)(C)C)C1(C(=O)NCc2ccccc2)CCN(Cc2ccccc2)CC1 (stereo partly specified)	> 100 µM	> 100 µM	84 µM	53 µM	
COC(=O)C[C@H](NC(=O)OC(C)(C)C)C(=O)NC1(C(=O)NCc2ccccc2)CCN(Cc2ccccc2)CC1	> 100 µM	> 100 µM	100 µM	85 µM	
COC(=O)C[C@H](NC(=O)OC(C)(C)C)C(=O)N(Cc1ccccc1F)C1(C(=O)NCc2ccccc2)CCN(Cc2ccccc2)CC1	9.3 µM	8.7 µM	20 µM	72 µM	≤ 10
COC(=O)C[C@H](NC(=O)OC(C)(C)C)C(=O)N(Cc1ccc(F)cc1)C1(C(=O)NCc2ccccc2)CCNCC1	> 73 µM	> 89 µM	100 µM	48 µM	
COC(=O)C[C@H](NC(=O)OC(C)(C)C)C(=O)N(Cc1ccc(F)cc1)C1(C(=O)NCc2ccccc2)CCN(c2ccccc2)CC1	> 100 µM	> 100 µM	20 µM	8.2 µM	
CC(C)(C)OC(=O)N[C@@H](Cc1ccccc1)C(=O)N(Cc1ccc(F)cc1)C1(C(=O)NCc2ccccc2)CCN(Cc2ccccc2)CC1	> 100 µM	> 100 µM	100 µM	56 µM	
COC(=O)C[C@H](NC(=O)OC(C)(C)C)C(=O)N(Cc1cccc(F)c1)C1(C(=O)NCc2ccccc2)CCN(Cc2ccccc2)CC1	4.1 µM	5.2 µM	47 µM	75 µM	≤ 10
COC(=O)C[C@H](NC(=O)OC(C)(C)C)C(=O)N(Cc1ccc(F)c(F)c1)C1(C(=O)NCc2ccccc2)CCN(Cc2ccccc2)CC1	> 100 µM	> 100 µM	20 µM	52 µM	
COC(=O)C[C@H](NC(=O)OC(C)(C)C)C(=O)N(Cc1ccc(F)cc1)C1(C(=O)NCc2ccccc2)CC[N+](C)(Cc2ccccc2)CC1 (stereo partly specified)	> 100 µM	> 100 µM	100 µM	55 µM	
COC(=O)C[C@H](NC(=O)OC(C)(C)C)C(=O)N(Cc1ccc(C(F)(F)F)cc1)C1(C(=O)NCc2ccccc2)CCN(Cc2ccccc2)CC1	> 100 µM	> 100 µM	84 µM	54 µM	
COC(=O)C[C@H](NC(=O)OC(C)(C)C)C(=O)N(CCNc1ccccc1)C1(C(=O)NCc2ccccc2)CCN(Cc2ccccc2)CC1	> 100 µM	> 100 µM	14 µM	68 µM	
COC(=O)C[C@H](NC(=O)OC(C)(C)C)C(=O)N(Cc1ccc(F)cc1)C1(C(=O)NCc2ccccc2)CCN(Cc2cccc(F)c2)CC1	1.6 µM	1.6 µM	84 µM	73 µM	
COC(=O)CCC(=O)N(Cc1ccc(F)cc1)C1(C(=O)NCc2ccccc2)CCN(Cc2ccccc2)CC1	25 µM	24 µM	16 µM	40 µM	
COC(=O)C[C@H](NC(=O)OC(C)(C)C)C(=O)N(Cc1ccc(F)cc1)C1(C(=O)NC2CCCCC2)CCN(Cc2ccccc2)CC1	> 100 µM	> 100 µM	100 µM	44 µM	
COC(=O)C[C@H](NC(=O)OC(C)(C)C)C(=O)N(Cc1ccccc1)C1(C(=O)NCc2ccccc2)CCN(Cc2ccccc2)CC1	9.3 µM	10 µM	> 100 µM	> 100 µM	≤ 10
COC(=O)C[C@H](NC(=O)OC(C)(C)C)C(=O)N(Cc1ccc(F)cc1)C1(C(=O)NC(C)(C)C)CCN(Cc2ccccc2)CC1	> 100 µM	> 100 µM	80 µM	50 µM	
